For twelve compounds, Activity results are on record in ChEMBL document CHEMBL3046837, “Synthesis of some novel amino and thiotetrazole purine derivatives and investigation of their antimicrobial activity and DNA interactions” (Med Chem Res, 2013).

Assay [1] has as its system Candida tropicalis. As to the kind of experiment: Antifungal activity against Candida tropicalis ATCC 13803 after 72 hr by disk diffusion method. The format is functional, organism-based. For orientation: Agar diffusion results depend on both activity and mobility in agar.
Assay [2] deals with Candida albicans. As to the kind of experiment: Antifungal activity against Candida albicans ATCC 10231 after 72 hr by disk diffusion method. It is filed as functional, organism-based.
Assay [3] has as its system Proteus vulgaris. Kind of assay: Antibacterial activity against Proteus vulgaris ATCC 8427 after 24 hr by disk diffusion method. It is filed as functional, organism-based.
Assay [4] concerns Escherichia coli. Kind of assay: Antibacterial activity against Escherichia coli ATCC 25922 after 24 hr by disk diffusion method. It is filed as functional, organism-based.
Assay [5] deals with Escherichia coli. Kind of assay: Antibacterial activity against Escherichia coli ATCC 35218 after 24 hr by disk diffusion method. The format is functional, organism-based.
For assay [6], the system named is Pseudomonas aeruginosa. As to the kind of experiment: Antibacterial activity against Pseudomonas aeruginosa ATCC 27853 after 24 hr by disk diffusion method. It is filed as functional, organism-based.
In assay [7] the test system is Enterococcus faecalis. Kind of assay: Antibacterial activity against Enterococcus faecalis […] after 24 hr by disk diffusion method. The format is functional, organism-based.
Assay [8] deals with Bacillus subtilis. As to the kind of experiment: Antibacterial activity against Bacillus subtilis […] after 24 hr by disk diffusion method. It is filed as functional, organism-based.
The test system of assay [9] is Bacillus cereus. Kind of assay: Antibacterial activity against Bacillus cereus NRLL B-3008 after 24 hr by disk diffusion method. It is filed as functional, organism-based.
Assay [10] concerns Staphylococcus aureus. Kind of assay: Antibacterial activity against Staphylococcus aureus ATCC 25923 after 24 hr by disk diffusion method. It is filed as functional, organism-based.
The test system of assay [11] is Escherichia coli. Kind of assay: Binding affinity to Escherichia coli pBR322 DNA assessed as appearance of DNA fragments at high concentration after 24 hr by agarose gel electrophoresis.
For assay [12], the system named is Escherichia coli. As to the kind of experiment: Binding affinity to Escherichia coli pBR322 DNA assessed as decrease in mobility of form 1 DNA at high concentration after 24 hr by agarose gel electrophoresis.
The subject of assay [13] is Escherichia coli. Kind of assay: Covalent binding to Escherichia coli pBR322 DNA adenine-adenine site assessed as inhibition of Hind3-mediated restriction digestion at 1250 uM by restriction endonuclease analysis.
Assay [14] concerns Escherichia coli. As to the kind of experiment: Covalent binding to Escherichia coli pBR322 DNA Guanine-guanine site assessed as inhibition of BamH1-mediated restriction digestion at 1250 uM by restriction endonuclease analysis.
Assay [15] deals with Escherichia coli. As to the kind of experiment: Covalent binding to Escherichia coli pBR322 DNA assessed as disappearance of form 2 DNA at high concentration after 24 hr by agarose gel electrophoresis.
Assay [16] concerns Escherichia coli. Kind of assay: Covalent binding to Escherichia coli pBR322 DNA assessed as appearance of small DNA fragments at high concentration after 24 hr by agarose gel electrophoresis.
The test system of assay [17] is Escherichia coli. As to the kind of experiment: Covalent binding to Escherichia coli pBR322 DNA assessed as increase in intensity of form 1 DNA at high concentration after 24 hr by agarose gel electrophoresis.
The test system of assay [18] is Escherichia coli. As to the kind of experiment: Binding affinity to Escherichia coli pBR322 DNA assessed as change in mobility of form 2 DNA at low concentration after 24 hr by agarose gel electrophoresis.
For assay [19], the system named is Escherichia coli. As to the kind of experiment: Binding affinity to Escherichia coli pBR322 DNA assessed as change in mobility of form 1 DNA at low concentration after 24 hr by agarose gel electrophoresis.

Molecules are shown by their SMILES. Active and inactive are the calls of the source. The calls are words filed in the database; no cut-off is given here.

As for `c1nc(Nc2nnn[nH]2)c2ncn(CC3CCC3)c2n1`, the outcome in assay [1], in assay [2], in [3], in assay [4], in [5] and in assay [6] was inactive. For the same compound, the result in [7], in assay [8], in [9], in assay [10] and in [14] was inactive. Also, the result in assay [11], in assay [12] and in assay [13] was Active.

`CCOC(=O)Cn1cnc2c(Sc3nnnn3C)ncnc21`: the outcome in [1], in [2], in assay [3], in assay [4], in [5] and in assay [6] was inactive. The result in assay [7], in assay [8], in [9] and in assay [10] was inactive. The outcome in assay [15], in [11], in assay [13] and in assay [14] was Active.

Turning to `c1ccc(Cn2cnc3c(Nc4nnn[nH]4)ncnc32)cc1`, the outcome in assay [1], in [2], in assay [3], in assay [4], in assay [5] and in assay [6] was inactive. The outcome in [7], in assay [8], in assay [9], in assay [10] and in assay [14] was inactive. Also, the result in assay [12] and in assay [13] was Active.

Regarding `CCOC(=O)Cn1cnc2c(Nc3nnn[nH]3)ncnc21`, the outcome in assay [1], in assay [2], in assay [3], in assay [4], in [5] and in [6] was inactive. Besides, the outcome in [7], in assay [8], in assay [9], in assay [10] and in [14] was inactive. Moreover, the result in assay [11], in assay [12] and in assay [13] was Active.

As for `CCCn1cnc2c(Sc3nnnn3C)ncnc21`, the outcome in assay [1], in [2], in assay [3], in [4], in assay [5] and in [6] was inactive. Further, the outcome in [7], in [8], in assay [9] and in [10] was inactive. The result in assay [11], in assay [12], in [13] and in assay [14] was Active.

As to `Cn1cnc2c(Nc3nnn[nH]3)ncnc21`, the result in [16], in [17] and in assay [13] was Active. Further, the result in assay [18], in assay [19], in [1], in [2], in assay [3] and in assay [4] was inactive. The outcome in assay [5], in assay [6], in assay [7], in assay [8], in assay [9] and in assay [10] was inactive. In addition, in assay [14], the outcome was inactive.

As to `c1nc(Nc2nnn[nH]2)c2nc[nH]c2n1`, the outcome in [16], in assay [17] and in [13] was Active. The result in [18], in [19], in [1], in assay [2], in [3] and in [4] was inactive. The result in [5], in assay [6], in [7], in [8], in assay [9] and in assay [10] was inactive. The outcome in [14] was inactive.

In the case of `CC(C)n1cnc2c(Nc3nnn[nH]3)ncnc21`, the outcome in [16], in assay [17] and in assay [13] was Active. Besides, the result in assay [18], in assay [19], in assay [1], in assay [2], in assay [3] and in assay [4] was inactive. Besides, the outcome in assay [5], in assay [6], in assay [7], in assay [8], in assay [9] and in assay [10] was inactive. Further, in [14], the outcome was inactive.

On to `CC(C)n1cnc2c(Sc3nnnn3C)ncnc21`, for which the result in assay [1], in assay [2], in [3], in assay [4], in assay [5] and in assay [6] was inactive. Also, the outcome in assay [7], in assay [8], in assay [9] and in [10] was inactive. Besides, the result in assay [11], in assay [12], in assay [13] and in assay [14] was Active.

Consider `CCCCCCn1cnc2c(Nc3nnn[nH]3)ncnc21`, for which the outcome in assay [16], in assay [17] and in assay [13] was Active. Moreover, the outcome in assay [18], in [19], in [1], in assay [2], in [3] and in assay [4] was inactive. Besides, the outcome in assay [5], in [6], in assay [7], in assay [8], in assay [9] and in [10] was inactive. In assay [14], the result was inactive.

`Cn1nnnc1Sc1ncnc2[nH]cnc12`: the result in [1], in [2], in [3], in [4], in assay [5] and in assay [6] was inactive. Also, the outcome in assay [7], in assay [8], in assay [9] and in assay [10] was inactive. The result in assay [12], in assay [13] and in assay [14] was Active.

In the case of `CCn1cnc2c(Nc3nnn[nH]3)ncnc21`, the result in assay [16], in [17] and in [13] was Active. Further, the outcome in [18], in assay [19], in assay [1], in assay [2], in assay [3] and in assay [4] was inactive. Also, the result in assay [5], in [6], in assay [7], in [8], in assay [9] and in [10] was inactive. Also, in assay [14], the result was inactive.
